Patent publication US4347319A, “Microbiological epoxidation process” (priority 1980, dated 1982)

Assays:
Type in all cases: cell-based
[1] = system: Methylocystis parvus (CRL 18 PM4) NRRL B-11,204; test: Oxidation by washed cell suspensions of methane-grown cells
How it was run: (§1)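 First, strains were cultured aerobically on methane at 30 °C until turbid, then pelleted and washed in phosphate buffer (0.15 M, pH 7.0). Next, 2 mg cell portions were sealed under substrate plus oxygen (1:1) and shaken at 30 °C. Finally, withdrawn samples were analysed by gas chromatography.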

[2] = system: Methylomonas rosaceus (CRL M10P) NRRL B-11,212
Description: (§2) The pH of the nutrient medium was adjusted to 7.0 by the addition of acid or base and 50 ml samples of the nutrient medium were charged into a plurality of 300 ml shaker flasks. The shaker flasks were inoculated with an inoculating loop of cells from an agar plate containing homogeneous colonies of the microorganisms on the plate (the purity of the isolates was confirmed by microscopic examination. The isolates had been maintained on agar plates under an atmosphere of methane and air having a 1:1 v/v gas ratio which had been transferred evey two weeks. The gaseous phase of the inoculated flasks was then replaced with a gas mixture comprised of methane and air having a ratio of 1:1 on a v/v basis. The inoculated flasks were sealed air tight and were incubated on a rotary shaker of orbital radius 2.5 cm at 250 rpm and at 30° C. for two days until turbidity in the medium had developed.
(§3) The cells were harvested by centrifugation at 10,000×g. at 4° C. for 30 minutes. The cell pellet was washed twice with a 0.15 M phosphate buffer at a pH of 7.0 (containing 0.002 M MgCl2). The washed cells were then suspended in a 0.15 M phosphate buffer at pH 7.0.
(§4) A 0.5 ml sample of each washed cell suspension (2 mg cells) was put into 10 ml vials at 4° C. which were sealed with a rubber cap. The gaseous phase of the vials was removed with vacuum and then was replaced with a gas mixture of the oxidative substrate (e.g., methane) and oxygen at a 1:1 v/v ratio. The vials were then incubated at 30 ° C. on a rotary shaker at 300 rpm. Samples of product (3 μl) were withdrawn periodically with a microsyringe and the products were analyzed by gas chromatography (ionization flame detector column).
(§5) The newly discovered and isolated microorganism strains of the present invention were each grown aerobically in the presence of methane in the manner described above. The methane-grown microbial cells were then washed, recovered and put to use in oxidizing an oxidative substrate by the procedure described above except in the case of a liquid substrate 10 μl of the substrate were used.

[3] = system: Methylomonas albus (CRL M8Y) NRRL B-11,207; test: Oxidation by washed cell suspensions of methane-grown cells; details: methane-grown washed cells, 30° C.; methane to methanol, alkene to 1,2-epoxide
How it was run: as §1

[4] = system: Methylococcus minimus (CRL 24 PM12) NRRL B-11,220; test: as above; details: methane-grown washed cells, 30° C.; methane to methanol, alkene to 1,2-epoxide
How it was run: as §1

[5] = system: Methylosinus trichosporium (CRL 15 PM1) NRRL B-11,202; test: as above; details: methane-grown washed cells, 30° C.; methane to methanol, alkene to 1,2-epoxide
How it was run: as §1

[6] = system: Methylomonas rosaceus (CRL M7P) NRRL B-11,213; test: as above; details: 30° C., methane to methanol, alkene to 1,2-epoxide
How it was run: as §1

[7] = system: Methylobacter chroococcum (CRL M6) NRRL B-11,214; test: as above; details: methane-grown washed cells, 30° C.; methane to methanol, alkene to 1,2-epoxide
How it was run: as §1

[8] = system: Methylococcus capsulatus (CRL 25 PM13) NRRL B-11,221; test: as above; details: methane-grown washed cells, 30° C.; methane to methanol, alkene to 1,2-epoxide
How it was run: as §1

[9] = system: Methylomonas agile (CRL 22 PM9) NRRL B-11,209; test: as above; details: methane-grown washed cells, 30° C.; methane to methanol, alkene to 1,2-epoxide
How it was run: as §1

[10] = system: Methylobacter vinelandii (CRL M5Y) NRRL B-11,218; test: as above; details: methane-grown washed cells, 30° C.; methane to methanol, alkene to 1,2-epoxide
How it was run: as §1

[11] = system: Methylomonas streptobacterium (CRL 17 PM3) NRRL B-11,208; test: as above; details: methane-grown washed cells, 30° C.; methane to methanol, alkene to 1,2-epoxide
How it was run: as §1

[12] = system: Methylobacterium organophilum (CRL 26 R6) NRRL B-11,222; test: as above; details: methane-grown washed cells, 30° C.; methane to methanol, alkene to 1,2-epoxide
How it was run: as §1

[13] = system: Methylococcus capsulatus (CRL M1) NRRL B-11,219; test: as above; details: methane-grown washed cells, 30° C.; methane to methanol, alkene to 1,2-epoxide
How it was run: as §1

[14] = system: Methylosinus sporium (CRL 16 PM2) NRRL B-11,203; test: as above; details: methane-grown washed cells, 30° C.; methane to methanol, alkene to 1,2-epoxide
How it was run: as §1

[15] = system: Methylobacter chroococcum (CRL 23 PM8) NRRL B-11,215; test: as above; details: methane-grown washed cells, 30° C.; methane to methanol, alkene to 1,2-epoxide
How it was run: as §1

[16] = system: Methylomonas methanica (CRL 21 PM7) NRRL B-11,206; test: as above; details: methane-grown washed cells, 30° C.; methane to methanol, alkene to 1,2-epoxide
How it was run: as §1

[17] = system: Methylomonas rubrum (CRL M6P) NRRL B-11,210; test: as above; details: methane-grown washed cells, 30° C.; methane to methanol, alkene to 1,2-epoxide
How it was run: as §1

[18] = system: Methylomonas methanica (CRL M4P) NRRL B-11,205; test: as above; details: methane-grown washed cells, 30° C.; methane to methanol, alkene to 1,2-epoxide
How it was run: as §1

[19] = system: Methylomonas rubrum (CRL 20 PM6) NRRL B-11,211; test: as above; details: methane-grown washed cells, 30° C.; methane to methanol, alkene to 1,2-epoxide
How it was run: as §1

[20] = system: Methylobacter bovis (CRL 19 PM5) NRRL B-11,217; test: as above; details: methane-grown washed cells, 30° C.; methane to methanol, alkene to 1,2-epoxide
How it was run: as §1

[21] = system: Methylobacter bovis (CRL M1Y) NRRL B-11,216; test: as above; details: methane-grown washed cells, 30° C.; methane to methanol, alkene to 1,2-epoxide
Description: as §2, with “The inoculated flasks were sealed air tight and were incubated on a rotary shaker of orbital radius 2.5 cm at 250 rpm and at 30° C. for two days until turbidity in the medium had developed.” left out
as §3, §4, §5

CCC(C)=O [Butanone]
Conversion Rate to Ketone ([1]; methane-grown cells, product 2-butanone): 1.0 μmoles/hr/mg Protein

C=C [Ethylene]
Oxidative Conversion Rates [2]: 4.7 | Oxidative Conversion Rates [3]: 1.8 μmole/hr/mg protein | Oxidative Conversion Rates [4]: 1.2 μmole/hr/mg protein | Oxidative Conversion Rates [5]: 2.5 μmole/hr/mg protein | Oxidative Conversion Rates [6]: 2.9 μmole/hr/mg protein | Oxidative Conversion Rates [7]: 1.6 μmole/hr/mg protein | Oxidative Conversion Rates [8]: 0.8 μmole/hr/mg protein | Oxidative Conversion Rates [9]: 2.2 μmole/hr/mg protein | Oxidative Conversion Rates [10]: 1.2 μmole/hr/mg protein | Oxidative Conversion Rates ([1]; methane-grown washed cells, 30° C., methane to methanol, alkene to 1,2-epoxide): 0.9 μmole/hr/mg protein | Oxidative Conversion Rates [11]: 0.7 μmole/hr/mg protein | Oxidative Conversion Rates [12]: 0.9 μmole/hr/mg protein | Oxidative Conversion Rates [13]: 5.7 μmole/hr/mg protein | Oxidative Conversion Rates [14]: 1.3 μmole/hr/mg protein | Oxidative Conversion Rates [15]: 1.2 μmole/hr/mg protein | Oxidative Conversion Rates [16]: 2.1 μmole/hr/mg protein | Oxidative Conversion Rates [17]: 0.7 μmole/hr/mg protein | Oxidative Conversion Rates [18]: 1.0 μmole/hr/mg protein | Oxidative Conversion Rates [19]: 1.1 μmole/hr/mg protein | Oxidative Conversion Rates [20]: 1.3 μmole/hr/mg protein | Oxidative Conversion Rates [21]: 0.64 μmole/hr/mg protein
